According to patent US10105437B2, “Epitopes related to coeliac disease” (BTG International Limited, priority 2004, dated 2018):

Experiments:
Type in all cases: cell-based, human
[1] = tested on: PBMC from HLA DQ8+DQ2- CD subjects; assay: Interferon gamma ELISPOT, glutenin 20mer library in HLA DQ8 subjects; details: tTG-pretreated glutenin 20mers sharing the motif or sequence
Description: PBMC from two subjects initially challenged were used to screen the first round “Melbourne” wheat gliadin 20mer library. The 20mer sequences identified using PBMC from these two HLA DQ8 CD subjects were dissected further by screening, in five HLA DQ8+DQ2− CD subjects including the two original subjects, a second round library based on reactive 20mers in the 1st round library. The 2nd round library consisted of screening grade overlapping 16mers, and 13mers predicted to correspond to tTG-mediated deamidation products of epitopes with the potential for deamidation of glutamine at position 1 and/or position 9 (consistent with the HLA DQ8 peptide binding motif). In addition, the 1400 glutenin (HMW and LMW) tTG-pretreated 20mers in the “Melbourne” wheat gluten library were also screened in these five subjects.
Dominant 20mer peptides shared the motifs or had the sequences: PQQQQQQLVQQQ (SEQ ID NO: 1917), QGIFLQPH(LQ)I(AS)QLEV (SEQ ID NO: 1918), QPGQGQQG(HY)Y (SEQ ID NO: 1919), QSRYEAIRAII(FY)S (SEQ ID NO: 1920), RTTTSVPFD (SEQ ID NO: 1921), QPPFWRQQP (SEQ ID NO: 1922), Q(PS)(PS)(FI)(PS) QQQQ (SEQ ID NO: 1923), (QPLR)GYYPTSPQ (SEQ ID NO: 1924) (previously identified HLA DQ8 epitope, van der Wal 2001), QGSYYPGQASPQ (SEQ ID NO: 1925), […] (SEQ ID NO: 1926), and […] (SEQ ID NO: 1927). Glutenin peptides were assessed after pre-treatment with transglutaminase.

[2] = tested on: PBMC from subjects with DQ2+ coeliac disease; assay: Interferon gamma ELISPOT, high grade avenin peptides after oats challenge; details: for subjects in whom peptide was dominant (>70% maximal response) after oats challenge: day 6 PBMC
Protocol: IFNγ ELISpot assays (Mabtech, Sweden) were performed in 96-well plates (MAIP S-45, Millipore) in which each well contained 25 mcl of peptide solution and 100 mcl of PBMC (2-8×10^5/well) in RPMI containing 10% heat inactivated human AB serum. After development and drying, IFNγ ELISpot plates were assessed using the MAIP automated ELISpot plate counter. Data was then analysed according to a novel algorithm (Expectation Maximization: EM) to define and quantify interferon-gamma responses to 9mer sequences contained within the peptide library (see FIG. 3 and below). 9mer peptides were then rationalised according to an algorithm that assumes redundancy in T-cell recognition, the “IterativeCluster” algorithm (see FIG. 4 and below), by allowing groups of amino acids with similar chemical properties at any one position in the 9mer, or for glutamate to replace glutamine at any position (assuming deamidation may have occurred).
High grade avenin peptides were assessed 3 days after completing oats challenge with pure wheat-free oats, 100 g/d for 3 days (“day 6” PBMC interferon gamma ELISPOT responses). These peptides were designed upon peptides previously defined using the screening grade (“first round”) avenin peptide library and on potential deamidation sites. There were 25 peptides (as 16mers) with purity verified by HPLC as >80%, and sequences confirmed by mass spectroscopy.
Interferon gamma ELISPOT responses to the high grade avenin peptides following deamidation by tTG were compared in 18 subjects with DQ2+ coeliac disease.

[3] = tested on: PBMC from HLA-DQ2+ subjects; assay: Interferon gamma ELISPOT, initial gliadin epitope screening library; details: 15 HLA-DQ2+ subjects, deamidated 20mers
Description: In initial experiments involving 29 HLA-DQ2+ individuals with coeliac disease on long-term gluten free diet, interferon-gamma ELISPOT assays were used to screen a previous Pepset (described in WO 03/104273, which is incorporated herein by reference) initially as pools of peptides and then in 15 subjects as individual peptides with and without deamidation by tTG. This Pepset library consisted of 652 20mer gliadin peptides spanning all unique 12mers contained within all Genbank entries described as wheat gliadins found in September 2001. This Pepset library was designed “manually” from gene-derived protein sequences aligned using ClustalW software (MegAlign) arranged into phylogenetic groupings.
Approximately 0.6 micromole of each of 652 of the 20mers was provided. Two marker 20mer peptides were included in each set of 96 ([…]—peptide 161 (SEQ ID NO: 1931), and […] (SEQ ID NO: 1932)) and were characterized by reverse phase-HPLC and amino acid sequence analysis. Average purities of these marker peptides were 19% and 50%, respectively. Peptides were initially dissolved in acetonitrile (10%) and Hepes 100 mM to 10 mg/ml. The final concentration of individual peptides incubated with PBMC for the IFNγ ELISpot assays was 20 mcg/ml. These peptides were deamidated by incubation with guinea pig tissue tTG (Sigma T5398) in the ratio 100:32 mcg/ml for two hours at 37° C. […]

[4] = tested on: PBMC from HLA DQ2 coeliac disease subjects; assay: Interferon gamma ELISPOT, combitope comparison after wheat, rye or barley challenge; details: for median ELISPOT response as percent of response to Combitope: after wheat challenge, n=16 subjects
Description: The issue of epitope redundancy and the potential utility in diagnostics and therapeutics of peptides designed to combine “unique” dominant epitopes was addressed by comparing interferon gamma ELISPOT responses after wheat (n=16 HLA DQ2 coeliac disease subjects), rye (n=17) or barley (n=13) challenge to the sequences: QLQPFPQPELPYPQPQL (SEQ ID NO: 1903) (“P04724E”), QPEQPFPQPEQPFPWQP (SEQ ID NO: 1904) (“626fEE”), and […] (SEQ ID NO: 1905) (“Combitope”). After rye and barley challenge the sum of the median ELISPOT responses (spot forming units) to P04724E and 626fEE were almost identical (99%, and 102%, respectively) to the response to a similar (optimal) concentration of the Combitope. However, after wheat challenge (n=16 subjects), median P04724E response was 89% of that to Combitope, and median 626fEE responses was 70% of the response to Combitope.

[5] = after oats challenge, deamidated by tTG, 18 subjects

(QPLR)GYYPTSPQ: previously identified HLA DQ8 epitope, van der Wal 2001 [reference compound]
dominance among five subjects [1]: dominant in at least one of the five subjects

EQQFGQNIFSGFSVQL (Description of Artificial Sequence: Synthetic gluten peptide)
subjects in whom peptide was dominant (>70% maximal response) after oats challenge ([2]; deamidated by tTG, 18 subjects): 11/18

EQYQPEQQPFMQPL (Description of Artificial Sequence: Synthetic gluten peptide)
subjects with >40% maximal peptide response [2, 5]: 5/18

GYYPTSSLQPEQGQQGYYPT (Description of Artificial Sequence: Synthetic gluten peptide) [glutenin 20mer, HLA DQ8]
dominance among five subjects [1]: dominant in at least one of the five subjects

PQPFPPQLPYPQPQLPYPQP (Description of Artificial Sequence: Synthetic gliadin peptide) [Peptide 91]
potency rank in library [3]: most potent gliadin 20mer

PQQQQQQLVQQQ (Description of Artificial Sequence: Synthetic gluten peptide) [motif of dominant glutenin 20mers, HLA DQ8]
dominance among five subjects [1]: dominant in at least one of the five subjects

QGQQLAQGQQGQQPAQVQQG (Description of Artificial Sequence: Synthetic gluten peptide) [glutenin 20mer, HLA DQ8]
dominance among five subjects [1]: dominant in at least one of the five subjects

QGSYYPGQASPQ (Description of Artificial Sequence: Synthetic gluten peptide) [motif of dominant glutenin 20mers, HLA DQ8]
dominance among five subjects [1]: dominant in at least one of the five subjects

QIPEQLRCPAIHSVVQ (Description of Artificial Sequence: Synthetic gluten peptide)
subjects with positive responses [2, 5]: 3/18

QLQPFPQPELPYPQPQL (Description of Artificial Sequence: Synthetic gluten peptide) [Peptide P04724E]
sum of the median ELISPOT responses to P04724E and 626fEE relative to response to Combitope ([4]; after barley challenge, n=13): 102% | sum of the median ELISPOT responses to P04724E and 626fEE relative to response to Combitope ([4]; after rye challenge, n=17): 99% | median ELISPOT response as percent of response to Combitope [4]: 89%

QLRCPAIHSVVQAIIL (Description of Artificial Sequence: Synthetic gluten peptide)
subjects in whom peptide was dominant (>70% maximal response) after oats challenge ([2]; deamidated by tTG, 18 subjects): 4/18

QPEQPFPQPEQPFPWQP (Description of Artificial Sequence: Synthetic gluten peptide) [Peptide 626fEE]
sum of the median ELISPOT responses to P04724E and 626fEE relative to response to Combitope ([4]; after barley challenge, n=13): 102% | sum of the median ELISPOT responses to P04724E and 626fEE relative to response to Combitope ([4]; after rye challenge, n=17): 99% | median ELISPOT response as percent of response to Combitope [4]: 70%

QPPFWRQQP (Description of Artificial Sequence: Synthetic gluten peptide) [motif of dominant glutenin 20mers, HLA DQ8]
dominance among five subjects [1]: dominant in at least one of the five subjects

QYQPYPEQEQPILQQQ (Description of Artificial Sequence: Synthetic gluten peptide)
subjects in whom peptide was dominant (>70% maximal response) after oats challenge ([2]; deamidated by tTG, 18 subjects): 3/18

RTTTSVPFD (Description of Artificial Sequence: Synthetic gluten peptide) [motif of dominant glutenin 20mers, HLA DQ8]
dominance among five subjects [1]: dominant in at least one of the five subjects

SEQYQPYPEQQEPFVQ (Description of Artificial Sequence: Synthetic gluten peptide) [peptide 1490, avenin peptide reported in Arentz-Hansen, PLoS Medicine 2004, reference compound]
subjects with far weaker response ([2]; after oats challenge): 5 | subjects with strong positive response ([2]; after oats challenge): one
